# From patent US20180050994A1 (THE JOHNS HOPKINS UNIVERSITY, priority 2013, published 2018)
# Key:
# hNav1.1 = biological target: T1, hNav1.1 (Homo sapiens, UniProt P35498); test: Two-electrode voltage-clamp recording of hNav1.1 gating in Xenopus oocytes; format: cell-based; conditions: for effect on hNav1.1 persistent current / effect on hNav1.1 opening (G-V relationship): 100 μM; for effect on hNav1.1 persistent current: analyzed at the end of a 50 ms test pulse; for effect on hNav1.1 opening (G-V relationship): significance at p<0.005; for Activation (V1/2): hNav1.1 + β1 in Xenopus oocytes, ≤1% DMSO, DMSO control −38.2 ± 1.9 mV; for Activation (V1/2) / Inactivation (V1/2): 100 μM drug; for Inactivation (V1/2): hNav1.1, steady-state inactivation, DMSO control −49.4 ± 0.3 mV
# T1 construct: host or cells: Xenopus oocytes (cRNA injection)
# hNav1.3 = biological target: T2, hNav1.3 (Homo sapiens, UniProt Q9NY46); test: Two-electrode voltage-clamp recording of hNav1.3 gating in Xenopus oocytes; format: cell-based; conditions: for Activation (V1/2): hNav1.3, 100 μM drug, DMSO control −24.7 ± 1.6 mV; for Inactivation (V1/2): hNav1.3, steady-state inactivation, 100 μM drug, DMSO control −52.8 ± 0.9 mV
# T2 construct: host or cells: Xenopus oocytes (cRNA injection)
# [1] = tested on: flurothyl-induced seizures in male Crl:CF1 mice; test: Flurothyl seizure induction; format: in vivo, mouse; conditions: 75 mg/kg ip
# Method: (§1) Animal husbandry and drug administration. Male Crl:CF1 mice (10-12 weeks old, Charles River) were housed under a 12 hour light-dark cycle with free access to food and water and all experiments were carried out between 10 am and 4 pm. 1-[phenyl-methyl]-1H-1,2,3-triazole-4-carboxamide-5-methyl (Compound B) (Sigma Aldrich) was suspended in a 40% solution of cyclodextrin (Sigma Aldrich) in sterile saline (0.9%) and 15 minutes prior to each seizure induction paradigm, 75 mg/kg of compound B was administered via intraperitoneal injection (ip) injection. Vehicle treated animals were similarly administrated 40% cyclodextrin and served as the controls for each experiment. The Emory University Institutional Animal Care and Use Committee approved all experimental protocols involving mice.
# Flurothyl Seizure induction. Latencies to flurothyl-induced seizures were determined as previously described (Neurobiol Dis 49C, 211-220 (2012)). Briefly, flurothyl (2,2,2-trifluroethylether; Sigma Aldrich) was dispensed at a rate of 20 μl/minute into a Plexiglas chamber and latencies to three behavioral phenotypes were compared between vehicle-treated and compound B-treated (75 mg/kg) mice (n=12 per group): 1) the first myoclonic jerk, 2) a generalized tonic-clonic seizure, and 3) a generalized tonic-clonic seizure with tonic extension. Similar to picrotoxin-mediated seizure induction, the myoclonic jerk is the first observable behavioral phenotype followed by the generalized tonic-clonic seizure which is characterized by a loss of postural control with rapid movement of all four limbs for at least 5s. Lastly, the generalized tonic-clonic seizure with tonic hind limb extension involves the loss of postural control and rapid movement of all four limbs followed by downward extension of the limbs parallel to the body.
# (§2) Statistical analysis. A Student's t-test was used to identify statistically significant differences in latencies between vehicle- and compound B-treated groups for each seizure phenotype following administration of flurothyl and picrotoxin. […] All data are presented as the mean±s.e.m.; p values<0.05 were considered significant.
# rat hippocampal neurons = test: Action potential threshold recordings in hippocampal neurons; format: cell-based; conditions: 100 μM Compound B
# Method: Action potential threshold recordings in hippocampal neurons. Hippocampal neurons were dissected from Sprague Dawley rat embryos at embryonic day 18. Cells were treated with papain (Worthington Biochemical), dissociated with a pipette and plated over coverslips coated with collagen (Life Technologies) and poly-D-Lysine (Sigma-Aldrich). Astrocyte beds were prepared at a density of 80,000 cells/ml and cultured in DMEM (Life Technologies) with 10% Fetal Bovine Serum, 6 mM glutamine for 14 days in 5% CO2 at 37° C. Total medium was changed every week. Neurons were plated over confluent astrocyte beds at a density of 150,000 cells/ml and cultured for 3 weeks in Neurobasal media (Life Technologies) supplemented with B27 and 2 mM glutaMAX. Half of the media was changed every 3-4 days. Cells were treated for 3 hours with compound B in 0.3% DMSO or control (media containing 0.3% DMSO) before recording. Coverslips were transferred to a chamber perfused at 2 ml/minute at 32° C. with ACSF containing (in mM): 140 NaCl, 5 KCl, 2 CaCl2, 2 MgCl2, 10 HEPES, and 10 Glucose (pH 7.3 adjusted with NaOH). […] Action potential thresholds were measured by a series of 100 ms, 10 pA depolarizing current injections. At the minimal current injection needed to elicit an action potential, firing threshold was determined by calculating the potential at which the rate of rise crossed 40 V/s, using AxoGraph X software. […]
# hNav1.2 = biological target: T3, hNav1.2 (Homo sapiens, UniProt Q99250); test: Two-electrode voltage-clamp recording of hNav1.2 gating in Xenopus oocytes; format: cell-based; conditions: for Activation (V1/2): hNav1.2, 100 μM drug, DMSO control −31.7 ± 1.2 mV; for Inactivation (V1/2): hNav1.2, steady-state inactivation, 100 μM drug, DMSO control −59.7 ± 0.4 mV
# T3 construct: host or cells: Xenopus oocytes (cRNA injection)
# hNav1.6 = biological target: T4, hNav1.6 (Homo sapiens, UniProt Q9UQD0); test: Two-electrode voltage-clamp recording of hNav1.6 gating in Xenopus oocytes; format: cell-based; conditions: for Activation (V1/2): hNav1.6, 100 μM drug, DMSO control −26.7 ± 1.1 mV; for Inactivation (V1/2): hNav1.6, steady-state inactivation, 100 μM drug, DMSO control −65.1 ± 0.8 mV
# T4 construct: host or cells: Xenopus oocytes (cRNA injection)
# [2] = tested on: 6 Hz psychomotor seizures in male Crl:CF1 mice; test: 6 Hz psychomotor seizure induction; format: in vivo, mouse; conditions: 17 mA
# Method: as §1
# 6 Hz psychomotor seizure induction. Topical anesthetic (0.5% tetracaine hydrochloride ophthalmic solution) was applied to the cornea 30 minutes before testing. Fifteen minutes prior to seizure induction, mice were administrated vehicle or compound B (n=12 per group). Each mouse was manually restrained and corneal stimulation (0.2 ms pulse, 6 Hz, 3s) was performed at a current intensity of 17 mA (ECT Unit 57800; Ugo Basile, Comerio Italy). […] The mice were randomized into two groups and in the first trial one group received the vehicle whereas the other was administered compound B. The second trial was performed one week later with each group receiving the opposite treatment.
# as §2
# α1/β2/γ2 GABAA receptor = biological target: T5, α1/β2/γ2 GABAA receptor (Homo sapiens, UniProt P14867+P18507+P47870); test: GABAA receptor activation in oocytes; format: cell-based; conditions: 100 μM, oocytes at −70 mV; 5 μM muscimol as positive control
# T5 construct: expressed in transfected cells; host or cells: oocytes
# Text: Oocytes were kept at −70 mV throughout the experiment.
# [3] = tested on: picrotoxin-induced seizures in male Crl:CF1 mice; test: Picrotoxin seizure induction; format: in vivo, mouse
# Method: as §1
# Seizure induction paradigms and analyses. Picrotoxin seizure induction—15 minutes prior to i.p. injection of picrotoxin (10 mg/kg, Sigma Aldrich), mice were administered vehicle or compound B (n=12 per group). Latencies to the first myoclonic jerk, forelimb clonus, and generalized tonic-clonic seizure were compared between compound B and vehicle-treated mice. The myoclonic jerk is characterized by a sudden jerk of the upper body whereas forelimb clonus involves rapid movement of the forelimbs for at least 5s. Finally, the generalized tonic-clonic seizure involves the loss of postural control with rapid movement of the limbs for at least 5s.
# as §2
# [4] = cited from earlier work
# T5 sequence (P14867 28-456): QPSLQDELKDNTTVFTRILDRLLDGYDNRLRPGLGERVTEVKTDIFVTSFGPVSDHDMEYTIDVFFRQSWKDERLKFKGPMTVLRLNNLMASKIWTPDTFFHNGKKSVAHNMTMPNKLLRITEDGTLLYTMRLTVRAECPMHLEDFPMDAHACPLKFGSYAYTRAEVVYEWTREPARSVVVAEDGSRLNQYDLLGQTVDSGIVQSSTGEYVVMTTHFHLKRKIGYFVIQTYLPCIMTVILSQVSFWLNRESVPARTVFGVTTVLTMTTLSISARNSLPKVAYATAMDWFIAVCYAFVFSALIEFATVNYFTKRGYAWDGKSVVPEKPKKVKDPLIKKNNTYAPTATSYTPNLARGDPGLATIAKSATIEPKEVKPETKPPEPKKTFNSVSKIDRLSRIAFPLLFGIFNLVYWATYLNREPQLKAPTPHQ
# T5 sequence (P47870 25-512 limits assumed): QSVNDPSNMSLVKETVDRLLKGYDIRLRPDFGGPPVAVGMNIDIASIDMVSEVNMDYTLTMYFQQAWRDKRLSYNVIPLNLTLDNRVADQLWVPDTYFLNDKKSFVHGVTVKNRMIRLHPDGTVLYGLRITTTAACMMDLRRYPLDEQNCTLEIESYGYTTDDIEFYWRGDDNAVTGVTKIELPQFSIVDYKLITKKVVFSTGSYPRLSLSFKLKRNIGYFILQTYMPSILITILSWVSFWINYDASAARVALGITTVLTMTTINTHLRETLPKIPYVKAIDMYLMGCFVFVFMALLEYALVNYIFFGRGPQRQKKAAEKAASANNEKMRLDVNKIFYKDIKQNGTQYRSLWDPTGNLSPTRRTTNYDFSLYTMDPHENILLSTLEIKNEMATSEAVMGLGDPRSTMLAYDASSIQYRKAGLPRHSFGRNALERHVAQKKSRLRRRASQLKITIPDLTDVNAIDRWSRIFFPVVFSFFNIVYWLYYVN
# T5 sequence (P18507 40-475): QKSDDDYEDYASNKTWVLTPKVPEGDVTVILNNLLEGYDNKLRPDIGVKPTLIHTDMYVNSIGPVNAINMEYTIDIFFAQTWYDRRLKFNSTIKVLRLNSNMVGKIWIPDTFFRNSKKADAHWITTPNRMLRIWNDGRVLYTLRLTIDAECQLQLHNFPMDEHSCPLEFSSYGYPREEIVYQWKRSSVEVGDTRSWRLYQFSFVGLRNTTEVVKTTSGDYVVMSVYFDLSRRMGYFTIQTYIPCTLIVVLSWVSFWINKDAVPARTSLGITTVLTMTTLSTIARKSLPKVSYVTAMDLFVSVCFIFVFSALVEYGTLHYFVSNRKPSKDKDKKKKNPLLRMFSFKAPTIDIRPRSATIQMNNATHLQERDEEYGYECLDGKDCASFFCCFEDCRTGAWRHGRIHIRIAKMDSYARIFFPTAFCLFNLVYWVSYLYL
smiles,measurement,setting,value
"NC(=O)c1nnn(Cc2cccc(F)c2)c1N [Compound A, 1-[(3-fluorophenyl)methyl]-1H-1,2,3-Triazole-4-carboxamide-5-amine]",effect on hNav1.1 persistent current,hNav1.1,neither of these compounds influences
same,effect on hNav1.1 opening (G-V relationship),hNav1.1,clearly inhibit hNav1.1 opening
same,Activation (V1/2),hNav1.1,−30.8 ± 1.0 mV
same,Inactivation (V1/2),hNav1.1,−50.5 ± 1.2 mV
"Cc1c(C(N)=O)nnn1Cc1ccccc1 [Compound B, 1-[phenyl-methyl]-1H-1,2,3-Triazole-4-carboxamide-5-methyl]",Activation (V1/2),hNav1.3,−25.8 ± 1.4 mV
same,Inactivation (V1/2),hNav1.3,−50.0 ± 0.8 mV
same,increase of average latency to GTCS+ vs vehicle,[1]; p<0.0001,56%
same,increase of average latency to first GTCS vs vehicle,[1]; p<0.0001,43%
same,average latency to the MJ vs vehicle,[1]; p=0.6,comparable
same,average latency to the first GTCS,[1]; vehicle 281±19 s,652 ± 48 s
same,average latency to GTCS with hind limb extension (GTCS+),[1]; vehicle 652±38 s,1155 ± 89 s
same,average action potential (firing) threshold,"rat hippocampal neurons; potential at which rate of rise crosses 40 V/s, control −43.3±2.4 mV",−27.8±1.6 mV
same,current injection needed to elicit an action potential,rat hippocampal neurons; control 20 pA,80 pA
same,Activation (V1/2),hNav1.2,−23.6 ± 1.1 mV
same,Inactivation (V1/2),hNav1.2,−53.6 ± 1.2 mV
same,Activation (V1/2),hNav1.6,−23.8 ± 1.9 mV
same,Inactivation (V1/2),hNav1.6,−62.6 ± 0.7 mV
same,animals exhibiting behavioral seizures,"[2]; 75 mg/kg ip, n=7/24, vehicle 92%",29%
same,seizure severity (modified Racine scale) vs vehicle,[2]; p<0.0001,dramatically less severe
same,reduction in the number of mice exhibiting seizures,"[2]; vs vehicle, p<0.0001",63%
same,effect on hNav1.1 persistent current,hNav1.1,neither of these compounds influences
same,effect on hNav1.1 persistent current,hNav1.1; listed as compound B,did not alter
same,effect on hNav1.1 opening (G-V relationship),hNav1.1,clearly inhibit hNav1.1 opening
same,Activation (V1/2),hNav1.1,−27.4 ± 1.0 mV
same,depolarizing shift in channel activation voltage,"hNav1.1; hNav1.1, 100 μM",~+11 mV
same,Inactivation (V1/2),hNav1.1,−49.4 ± 0.3 mV
same,Entry into SI (t),"hNav1.1; hNav1.1 slow inactivation, time-dependence of entry, DMSO 5.6 ± 0.3 s",5.5 ± 0.4 s
same,"Voltage-dependence of SI (V), V1/2","hNav1.1; hNav1.1 slow inactivation, DMSO −43.7 ± 1.6 mV",−43.2 ± 1.3 mV
same,activation of α1/β2/γ2 GABAA receptor (inward currents),α1/β2/γ2 GABAA receptor,do not activate
same,average latency to the first generalized tonic-clonic seizure (GTCS),"[3]; picrotoxin 10 mg/kg, Compound B 75 mg/kg ip 15 min before, vehicle 1006±106 s",1693 ± 315 s
same,frequency of the behavioral seizures vs vehicle,"[3]; picrotoxin, 75 mg/kg ip",no difference
same,increase of average latency to first GTCS vs vehicle,"[3]; picrotoxin, 75 mg/kg ip, p=0.03",41%
same,average latency to forelimb clonus (FC) vs vehicle,"[3]; picrotoxin, 75 mg/kg ip, p=0.3",no statistically significant differences
same,average latency to the first myoclonic jerk (MJ) vs vehicle,"[3]; picrotoxin, 75 mg/kg ip, p=0.4",no statistically significant differences
"OCc1cn(Cc2cccc(F)c2)nn1 [Compound C, 1-[(3-fluorophenyl)methyl]-1H-1,2,3-Triazole-4-hydroxymethyl]",effect on hNav1.1 opening (G-V relationship),hNav1.1,no longer affects hNav1.1 opening
same,Activation (V1/2),hNav1.1,−38.4 ± 1.3 mV
same,Inactivation (V1/2),hNav1.1,−49.2 ± 0.6 mV
"NC(=O)c1nnn(Cc2ccc(F)cc2)c1N [Compound D, 1-[(4-fluorophenyl)methyl]-1H-1,2,3-Triazole-4-carboxamide-5-amine]",effect on hNav1.1 opening (G-V relationship),hNav1.1,not significant
same,Activation (V1/2),hNav1.1,−32.5 ± 2.3 mV
same,Inactivation (V1/2),hNav1.1,−49.8 ± 1.6 mV
"NC(=O)c1cn(Cc2c(F)cccc2F)nn1 [Rufinamide, 1-[(2,6-difluorophenyl)methyl]-1H-1,2,3-Triazole-4-carboxamide, reference compound]",Activation (V1/2),hNav1.3,−24.5 ± 2.4 mV
same,Inactivation (V1/2),hNav1.3,−52.6 ± 1.6 mV
same,Activation (V1/2),hNav1.2,−29.5 ± 1.2 mV
same,Inactivation (V1/2),hNav1.2,−57.7 ± 0.5 mV
same,Activation (V1/2),hNav1.6,−28.1 ± 0.8 mV
same,alteration of the midpoint of hNav1.6 channel availability,"hNav1.6; hNav1.6, 100 μM rufinamide",about +5 mV
same,Inactivation (V1/2),hNav1.6,−60.0 ± 0.7 mV
same,effect on hNav1.1 persistent current,hNav1.1,did not alter
same,effect on hNav1.1 opening (G-V relationship),hNav1.1,dramatic depolarizing shift
same,Activation (V1/2),hNav1.1,−30.6 ± 0.9 mV
same,solubility in DMSO,[4]; DMSO,up to 9 mg/ml
same,solubility in water,[4]; water,slightly soluble
same,activation of α1/β2/γ2 GABAA receptor (inward currents),α1/β2/γ2 GABAA receptor,do not activate
